Measurements from US20260262643A1, “HERBICIDAL BENZOXAZINES” (FMC CORPORATION, priority 2022, published 2026).

Key:
barnyardgrass [1] = assay: Test A preemergence; type: in vivo, Echinochloa crusgalli; conditions: visual injury after 10 days, 0 to 100 scale, 0 is no effect, 100 is complete control
Procedure, shortened: (§1)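 Seeds in loam–sand blend received a directed preemergence soil spray of compound in non-phytotoxic solvent with surfactant; postemergence plants (2–10 cm, one- to two-leaf stage) were sprayed with the same formulation. After 10 days in greenhouse, injury was rated visually versus untreated controls, 0 (no effect) to 100 (complete control).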

barnyardgrass [2] = assay: Test A postemergence; type: in vivo, Echinochloa crusgalli; conditions: postemergence, 10 days; for Barnyardgrass plant response rating: 125 g ai/ha, 0 to 100 scale, 0 no effect, 100 complete control; for Plant response rating, Barnyardgrass: 500 g ai/ha, visual injury, 0 to 100 scale (0 no effect, 100 complete control)
Procedure, shortened: as §1

| Structure (SMILES) | Plant response rating, Barnyardgrass (barnyardgrass [1]; 125 g ai/ha) | Plant response rating, Barnyardgrass (barnyardgrass [1]; 500 g ai/ha) | Barnyardgrass plant response rating (barnyardgrass [2]) | Plant response rating, Barnyardgrass (barnyardgrass [2]) |
| --- | --- | --- | --- | --- |
| C[C@H]1CN(C(=S)c2cccc(-n3cncn3)c2)c2cccc(Cl)c2O1 [Compound 139, [(2S)-8-Chloro-2,3-dihydro-2-methyl-4H-1,4-benzoxazin-4-yl][3-(1H-1,2,4-triazol-1-yl)phenyl]methanethione] | 70 | 90 | 20 | 70 |
| CC(C)c1ncn(-c2cc3c(c(C(=O)N4C[C@H](C)Oc5c(Cl)cccc54)c2)OCC3)n1 [Compound 147] | 40 | 100 | 10 | 70 |
| CC(C)c1ncn(-c2cc(C(=O)N3C[C@H](C)Oc4c(Cl)cccc43)c3ccccc3c2)n1 [Compound 145] | 0 | 40 | 20 | 20 |
| CC(C)c1ncn(-c2cc(C(=O)N3C[C@H](C)Oc4c(Cl)cccc43)c3ccccc3c2)n1 [Compound 146] | 20 | 70 | 20 | 20 |
| Cc1cccc2c1O[C@@H](C)CN2C(=O)c1cccc(-n2cnc(C3COC3)n2)c1 [Compound 109, [(2S)-2,3-Dihydro-2,8-dimethyl-4H-1,4-benzoxazin-4-yl][3-[3-(3-oxetanyl)-1H-1,2,4-triazol-1-yl]phenyl]methanone] | 90 | – | 50 | 90 |
